Assays:
[1] = test system: gastric lesions induced by compound 48/80; test: Gastric lesion test: lesions induced by compound 48/80 (Test 2); format: in vivo, rat (male, Wistar inbred strain); details: Rattus norvegicus, po
Experimental: Test 2: Effects in gastric lesion tests
The shock, followed by dead, can be avoided if the rats are pretreated with a classical H 1 antagonist.
Male rats of a Wistar inbred strain, weighing 200-250 g, are starved overnight, water being available ad libitum. The test compounds are administered orally as a solution or as a suspension in aqueous medium. A control rat and a "blank" rat […]. One hour later 5-[4-(diphenylmethyl)-1-piperazinylmethyl]-1-methyl-1H-benzimidazole-2-methanol is administered subcutaneously to all rats at the dose of 2.5 mg/kg. […] Four hours after the intravenous injection of compound 48/80, the rats are decapitated and the stomachs are removed. Subsequently the stomachs are inspected for distension and contents (blood, fluid, food) and thoroughly rinsed. The macroscopic lesions are secured from 0 to +++, 0 corresponding to complete absence of visible lesions and the highest score corresponding to reddish rough patches covering more than half the glandular area.

[2] = test system: effect of serotonin on the caudal artery of the rat; test: Antagonistic activity on the effect of serotonin on the caudal artery of the rat (Test 1); details: minimal concentration reducing amplitude of serotonin (40 ng/ml) contraction to at least 50% of normal; rat caudal artery strips; 5 min
Experimental: Test 1: Anta gonistic activity on the effect of serotonin on the caudal artery of the rat.
Caudal arteries from fasted male rats (210-235 g) are used in the test. Two helical strips having a length of 5-6 cm and a width of 2 mm are obtained from each artery and mounted vertically in a 100 ml organ bath containing an oxygenated Krebs-Henseleit solution. Submaximal contractions of the arterial strips are produced by adding single doses of serotonin (40 ng/ml) to the organ bath for 2 minutes with each time an interval of 10 minutes. The amplitude of the contraction is measured before and 5 minutes after adding the drug. After washing out, the agonist is added again three times in order to see whether the contraction is restored and normalized. […] In this connection the ED50 -values are the minimal concentrations of the concerned drugs which reduce the amplitude of the contraction to at least 50% of its normal value.

[3] = test system: rats injected with compound 48/80; details: known serotonin antagonists; cited from earlier work

SMILES	ED50 [1] [mg/kg]	Caudal Artery ED50 [2] [ng/mL]	prevention of cyanosis of ears and extremities, of lesions in the glandular area of the stomach and of abnormal gastric distension [3]
Cc1ccc2nc(C)c(CCN3CCC(c4c[nH]c5ccccc45)CC3)c(=O)n2c1 [H 7-CH3, 3-[2-[4-(1H-indol-3-yl)-1-piperidinyl]ethyl]-2,7-dimethyl-4H-pyrido-[1,2-a]pyrimidin-4-one]	0.63	0.31	–
CN1C[C@H](CNC(=O)OCc2ccccc2)C[C@@H]2c3cccc4c3c(cn4C)C[C@H]21 [metergoline]	–	–	prevent completely
Cc1ccc2nc(C)c(CCN3CCC(C(=O)c4ccc(F)cc4)CC3)c(=O)n2c1 [H 7-CH3 CH2CH2 H C6 H4.4F]	0.02	0.31	–
Cc1nc2ccccn2c(=O)c1CCN1CCC(CO)(C(=O)c2ccc(F)cc2)CC1.Cl.Cl.O [H H CH2CH2 CH2 OH C6 H4 .4F, 3-[2-[4-(4-fluorobenzoyl)-4-(hydroxymethyl)-1-piperidinyl]ethyl]-2-methyl-4H-pyrido[1,2-a]pyrimidin-4-one dihydrochloride monohydrate]	< 0.63	–	–
CN(C)CCCSc1ccccc1NC(=O)/C=C/c1ccccc1 [cinanserin]	–	–	prevent completely
Cc1ccn2c(=O)c(CCN3CCC(C(=O)c4ccc(F)cc4)CC3)c(C)nc2c1 [H 8-CH3 CH2CH2 H C6 H4 .4F]	0.04	< 2.5	–
O=C(CCCN1CCC2(CC1)C(=O)NCN2c1ccccc1)c1ccc(F)cc1 [spiperone]	–	–	prevent completely
Cc1nc2ccccn2c(=O)c1CCN1CCC(O)(C(=O)c2ccc(F)cc2)CC1 [H H CH2CH2 OH C6 H4 .4F]	2.5	0.31	–
CN1CCC(=C2c3ccccc3CCc3sccc32)CC1 [pizotifen]	–	–	prevent completely
Cc1nc2cccc(C)n2c(=O)c1CCN1CCC(C(=O)c2ccc(F)cc2)CC1 [H 6-CH3 CH2CH2 H C6 H4 .4F]	2.5	< 0.63	–
Cc1nc2ccccn2c(=O)c1CCN1CCC(c2c[nH]c3ccccc23)CC1 [H H, 3-[2-[4-(1H-indol-3-yl)-1-piperidinyl]ethyl]-2-methyl-4H-pyrido[1,2-a]pyrimidin-4-one]	0.08	0.14	–
Cc1nc2ccc(Cl)cn2c(=O)c1CCN1CCC(c2c[nH]c3ccccc23)CC1 [H 7-Cl, 7-chloro-3-[2-[4-(1H-indol-3-yl)-1-piperidinyl]ethyl]-2-methyl-4H-pyrido[1,2-a]pyrimidin-4-one]	0.63	0.63	–
Cc1ccccc1C(=O)C1CCN(CCc2c(C)nc3ccccn3c2=O)CC1 [H H CH2CH2 H C6 H4.2CH3]	–	1.25	–
Cc1ccn2c(=O)c(CCN3CCC(c4c[nH]c5ccccc45)CC3)c(C)nc2c1 [H 8-CH3, 3-[2-[4-(1H-indol-3-yl)-1-piperidinyl]ethyl]-2,8-dimethyl-4H-pyrido[1,2-a]pyrimidin-4-one]	0.04	0.31	–
Cc1nc2ccccn2c(=O)c1CCN1CCC(C(=O)c2ccc(F)cc2)CC1 [H H CH2CH2 H C6 H4 .4F, 3-[2-[4-(4-fluorobenzoyl)-1-piperidinyl]ethyl]-2-methyl-4H-pyrido[1,2-a]pyrimidin-4-one]	0.016	0.32	–
Cc1nc2ccc(Br)cn2c(=O)c1CCN1CCC(c2c[nH]c3ccccc23)CC1 [H 7-Br, 7-bromo-3-[2-[4-(1H-indol-3-yl)-1-piperidinyl]ethyl]-2-methyl-4H-pyrido[1,2-a]pyrimidin-4-one]	1.25	0.31	–
Cc1cc(C)n2c(=O)c(CCN3CCC(C(=O)c4ccc(F)cc4)CC3)c(C)nc2c1 [6-CH3 8-CH3 CH2CH2 H C6 H4.4F]	0.02	0.16	–
NC(=O)C1(N2CCCCC2)CCN(CCCC(=O)c2ccc(F)cc2)CC1 [pipamperone]	–	–	prevent completely
Cc1nc2ccccn2c(=O)c1CC(C)N1CCC(C(=O)c2ccc(F)cc2)CC1 (stereo not shown) [H H drawing 24 H C6 H4 .4F]	2.5	–	–
Cc1nc2cccc(C)n2c(=O)c1CCN1CCC(c2c[nH]c3ccccc23)CC1 [H 6-CH3, 3-[2-[4-(1H-indol-3-yl)-1-piperidinyl]ethyl]-2,6-dimethyl-4H-pyrido[1,2-a]pyrimidin-4-one]	0.16	0.08	–
Cc1nc2ccccn2c(=O)c1CCN1CCC(C)(C(=O)c2ccc(F)cc2)CC1 [H H CH2CH2 CH3 C6 H 4 .4F]	0.16	0.63	–
Cc1nc2ccccn2c(=O)c1CCN1CCC(C(=O)c2ccccc2)CC1 [H H CH2CH2 H C6 H5, 3-[2-(4-benzoyl-1-piperidinyl)ethyl]-2-methyl-4H-pyrido[1,2-a]pyrimidin-4-one]	0.63	0.63	–
Cc1cc(C)n2c(=O)c(CCN3CCC(c4c[nH]c5ccccc45)CC3)c(C)nc2c1 [6-CH3 8-CH3, 3-[2-[4-(1H-indol-3-yl)-1-piperidinyl]ethyl]-2,6,8-trimethyl-4H-pyrido[1,2-a]pyrimidin-4-one]	0.63	0.16	–
CN1CCN2c3ccccc3Cc3ccccc3C2C1 (stereo not shown) [mianserin]	–	–	prevent completely
Cc1nc2ccc(Cl)cn2c(=O)c1CCN1CCC(C(=O)c2ccc(F)cc2)CC1 [H 7-Cl CH2CH2 H C6 H4.4F]	0.01	1.25	–
Cc1nc2ccc(Br)cn2c(=O)c1CCN1CCC(C(=O)c2ccc(F)cc2)CC1 [H 7-Br CH2CH2 H C6 H4 .4F]	< 0.63	0.31	–
CN1CCC(=C2c3ccccc3C=Cc3ccccc32)CC1 [cyproheptadine]	–	–	prevent completely
CC[C@@H](CO)NC(=O)[C@@H]1C=C2c3cccc4c3c(cn4C)C[C@H]2N(C)C1 [methysergide]	–	–	prevent completely
Cc1nc2ccccn2c(=O)c1CCN1CCC(C(=O)c2cccs2)CC1 [H H CH2CH2 H 2-thienyl]	–	1.3	–
